Target: T1, human Npt2a (Homo sapiens, UniProt Q06495)
T1 construct: expressed in transfected cells
T1 sequence (Q06495 1-639): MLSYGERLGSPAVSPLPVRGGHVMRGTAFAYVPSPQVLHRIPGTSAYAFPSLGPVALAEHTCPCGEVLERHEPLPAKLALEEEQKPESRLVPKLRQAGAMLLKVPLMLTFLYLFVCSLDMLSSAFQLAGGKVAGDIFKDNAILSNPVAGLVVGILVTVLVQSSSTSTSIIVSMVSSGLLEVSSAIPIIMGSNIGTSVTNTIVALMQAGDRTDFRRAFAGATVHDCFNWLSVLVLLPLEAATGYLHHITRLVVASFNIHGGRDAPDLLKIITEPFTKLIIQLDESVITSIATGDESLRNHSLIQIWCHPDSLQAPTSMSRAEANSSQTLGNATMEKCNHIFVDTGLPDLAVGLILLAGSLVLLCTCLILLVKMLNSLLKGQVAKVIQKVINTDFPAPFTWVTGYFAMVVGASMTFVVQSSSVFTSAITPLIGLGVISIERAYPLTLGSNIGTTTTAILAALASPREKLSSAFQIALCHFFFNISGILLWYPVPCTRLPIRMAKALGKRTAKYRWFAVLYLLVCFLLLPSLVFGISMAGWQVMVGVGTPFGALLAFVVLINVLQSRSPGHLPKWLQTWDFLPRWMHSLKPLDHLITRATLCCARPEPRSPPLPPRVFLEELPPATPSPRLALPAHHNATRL
Experiment: Npt2a activity cell based assay, membrane potential dye, CHO T-REx hNpt2a cells
Settings: doxycycline-induced, depolarization by sodium phosphate influx, average or median values if tested more than once
Experimental: For measuring Npt2a activity in a cell based assay, a stable CHO cell line with inducible Npt2a expression was generated. Therefore, CHO T-Rex cells (life technologies cat. R718-07) were stably transfected with doxycycline-inducible human NPT2a (pcDNA5TO-hNpt2a). The obtained CHO T-REx hNpt2a cells were routinely cultured in Dulbecco's MEM/F12 (4.5 g/l Glucose, Gibco cat. 21331-020; 500 mL) supplemented with 10 ml Glutamax 100×, Sodium pyruvate (7 mL of 100 mM solution), HEPES (10 mL of 1 M solution), Sodium bicarbonate (10 mL of 7.5% solution), 10% Fetal Bovine Serum Tetracycline free (Clontech cat. 631106, 500 ml), Penicillin-Streptomycin (5 mL of 100× Solution), Blasticidin 10 μg/mL and 400 μg/mL Hygromycin.
Activity of Npt2a was detected by following depolarization of cellular membrane potential by influx of sodium phosphate using fluorescent membrane potential dye kit BLUE (Molecular devices cat. R8034). For Npt2a activity measurements, CHO T-Rex hNpt2a cells were seeded into 1536 well microtiter plates (GREINER Bio-One cat. 782092) with 750 cells/well in 7 μL/w of complete medium (2% Tetracycline-free FBS, 2% Poly-D-Lysine) without selective agents+Doxycycline 0.5 μg/mL to induce Npt2a gene expression, and grown for 24 h at 37° C., 5% carbon dioxide.
On the day of experiment a 1×MPdye Loading Solution was freshly prepared by re-suspending 15 mg of Blue MPdye powder in 10 mL of NHE buffer sodium-free (140 mM N-Methyl-D-glucamine, 5.4 mM KCl, 1 mM CaCl2, 11 mM D(±)-Glucose water free, 1.2 mM MgCl2, 10 mM HEPES; pH 7.4 (adjusted with hydrochloric acid); sterile filtered). 5 μl medium was removed from plates by robotic manipulation, then 5 μL/well of sodium-free NHE buffer was added. After incubation for 2 min, this washing step was repeated once. Then, 5 μL/w of buffer was removed from plates and cells were incubated for 5 min at room temperature with 5 μL/w of MPdye Loading Solution (1× in Sodium-free NHE Buffer). Test compounds were added to the cells at final test concentrations between 50 μM and 1 nM (0.6 μL/well, final DMSO 0.6%, prepared in MPDye Loading Solution) and incubated for 5 min at room temperature.
Plates were analyzed with an in house CCD camera device using a λexc 510-545 nm/λem 565-625 nm filter. Fluorescence was detected for 15 sec (background measurement M1). Activity of Npt2a was triggered by addition of 2 μL/well of 30 mM Na+ and 1 mM phosphate (prepared in a mixture of NHE Buffer Na+ free and NHE Buffer 140 mM Na+). Fluorescence was followed for 2-3 min (depolarization measurement M2). Data was normalized to cell number and dye loading efficiency by calculating M2/M1. This quotient was plotted against test compound concentration. Graph Pad Prism or equivalent in house software was used to create sigmoidal dose-response curves (variable slope) and determine IC50 values.

| SMILES | IC50 |
| --- | --- |
| CCc1c(Nc2cc(-n3nc(C)c(C(=O)N4CC(C)OC(C)C4)c3C)ncn2)nn(C)c1-c1ccc(F)cc1 (racemic) [Example 74, (±)-[syn-2,6-dimethylmorpholin-4-yl][1-(6-{[4-ethyl-5-(4-fluorophenyl)-1-methyl-1H-pyrazol-3-yl]amino}pyrimidin-4-yl)-3,5-dimethyl-1H-pyrazol-4-yl]methanone] | 1260 nM |
| CCc1c(Nc2cc(-n3nc(C)c(C(=O)N4CCCC4C)c3C)ncn2)nn(C)c1-c1ccc(F)cc1 (racemic) [Example 76, (±)-[1-(6-{[4-ethyl-5-(4-fluorophenyl)-1-methyl-1H-pyrazol-3-yl]amino}pyrimidin-4-yl)-3,5-dimethyl-1H-pyrazol-4-yl](2-methylpyrrolidin-1-yl)methanone] | 190 nM |
| CCc1c(Nc2cc(-n3nc(C)c4c3CCCC4(C)O)ncn2)nn(C)c1-c1ccc(F)cc1 (racemic) [Example 134, (±)-1-(6-{[4-ethyl-5-(4-fluorophenyl)-1-methyl-1H-pyrazol-3-yl]amino}pyrimidin-4-yl)-3,4-dimethyl-4,5,6,7-tetrahydro-1H-indazol-4-ol (Racemate)] | 180 nM |
| CCc1c(Nc2cc(-n3nc(C)c4c3CCC4(C)O)ncn2)nn(C)c1-c1ccc(F)cc1 (racemic) [Example 146, (rac)-1-(6-{[4-ethyl-5-(4-fluorophenyl)-1-methyl-1H-pyrazol-3-yl]amino}pyrimidin-4-yl)-3,4-dimethyl-1,4,5,6-tetrahydrocyclopenta[c]pyrazol-4-ol] | 126 nM |
| Cc1nn(-c2cc(Nc3c(C)c(-c4ccc(C#N)cc4)nn3C)ncn2)c2c1C(C)(O)CC2 (racemic) [Example 227, 4-[5-({6-[(±)-4-hydroxy-3,4-dimethyl-5,6-dihydrocyclopenta[c]pyrazol-1(4H)-yl]pyrimidin-4-yl}amino)-1,4-dimethyl-1H-pyrazol-3-yl]benzonitrile] | 16 nM |
| Cc1nn(-c2cc(Nc3c(C)c(-c4ccc(F)cc4)nn3CC3CC3)ncn2)c(C)c1C(C)O (racemic) [Example 249, (±)-1-[1-(6-{[1-(cyclopropylmethyl)-3-(4-fluorophenyl)-4-methyl-1H-pyrazol-5-yl]amino}pyrimidin-4-yl)-3,5-dimethyl-1H-pyrazol-4-yl]ethanol] | 22 nM |
| CCC(O)c1c(C)nn(-c2cc(Nc3c(C)c(-c4ccc(F)cc4)nn3CC3CC3)ncn2)c1C (racemic) [Example 280, (±)-1-[1-(6-{[1-(cyclopropylmethyl)-3-(4-fluorophenyl)-4-methyl-1H-pyrazol-5-yl]amino}pyrimidin-4-yl)-3,5-dimethyl-1H-pyrazol-4-yl]propan-1-ol (Racemic)] | 16 nM |
| Cc1nn(-c2cc(Nc3c(C)c(-c4ccc(F)cc4)nn3CC3CC3)ncn2)c2c1C(C)(O)CC2 (racemic) [Example 283, (±)-1-(6-{[1-(cyclopropylmethyl)-3-(4-fluorophenyl)-4-methyl-1H-pyrazol-5-yl]amino}pyrimidin-4-yl)-3,4-dimethyl-1,4,5,6-tetrahydrocyclopenta[c]pyrazol-4-ol (Racemate)] | 21 nM |
| Cc1nn(-c2cc(Nc3c(C)c(-c4ccc(C#N)cc4)nn3CC3CC3)ncn2)c(C)c1C(C)(O)C(F)(F)F (racemic) [Example 322, (±)-4-{1-(cyclopropylmethyl)-5-[(6-{3,5-dimethyl-4-[(2S)-1,1,1-trifluoro-2-hydroxypropan-2-yl]-1H-pyrazol-1-yl}pyrimidin-4-yl)amino]-4-methyl-1H-pyrazol-3-yl}benzonitrile (Racemate)] | 4 nM |
| Cc1cc(C)n(-c2cc(Nc3c(C)c(-c4ccc(F)cc4)nn3CC(C)(O)C3CC3)ncn2)n1 (racemic) [Example 325, (±)-2-cyclopropyl-1-[5-{[6-(3,5-dimethyl-1H-pyrazol-1-yl)pyrimidin-4-yl]amino}-3-(4-fluorophenyl)-4-methyl-1H-pyrazol-1-yl]propan-2-ol (Racemate)] | 1100 nM |
| COC(C)c1c(C)nn(-c2cc(Nc3c(C)c(-c4ccc(F)cc4)nn3CC3CC3)ncn2)c1C (racemic) [Example 326, (±)-N-[1-(cyclopropylmethyl)-3-(4-fluorophenyl)-4-methyl-1H-pyrazol-5-yl]-6-{4-[1-methoxyethyl]-3,5-dimethyl-1H-pyrazol-1-yl}pyrimidin-4-amine (Racemic)] | 4 nM |
| COc1c(-c2ccc(C#N)cc2)nn(CC2CC2)c1Nc1cc(-n2nc(C)c(C(C)O)c2C)ncn1 (racemic) [Example 331, (±)-4-{1-(cyclopropylmethyl)-5-[(6-{4-[(1S)-1-hydroxyethyl]-3,5-dimethyl-1H-pyrazol-1-yl}pyrimidin-4-yl)amino]-4-methoxy-1H-pyrazol-3-yl}benzonitrile] | 2800 nM |
| COc1c(-c2ccc(C#N)cc2)nn(CC2CC2)c1Nc1cc(-n2nc(C)c(C(C)OC)c2C)ncn1 (racemic) [Example 333, (±)-4-{1-(cyclopropylmethyl)-4-methoxy-5-[(6-{4-[1-methoxyethyl]-3,5-dimethyl-1H-pyrazol-1-yl}pyrimidin-4-yl)amino]-1H-pyrazol-3-yl}benzonitrile] | 54 nM |
| COc1c(-c2ccc(F)cc2)nn(CC2CC2)c1Nc1cc(-n2nc(C)c(C(C)O)c2C)ncn1 (racemic) [Example 336, (±)-1-[1-(6-{[1-(cyclopropylmethyl)-3-(4-fluorophenyl)-4-methoxy-1H-pyrazol-5-yl]amino}pyrimidin-4-yl)-3,5-dimethyl-1H-pyrazol-4-yl]ethanol] | 1650 nM |
| COC(C)c1c(C)nn(-c2cc(Nc3c(C)c(-c4ccc(C#N)cc4)nn3C)ncn2)c1C (racemic) [Example 338, (±)-4-{5-[(6-{4-[1-methoxyethyl]-3,5-dimethyl-1H-pyrazol-1-yl}pyrimidin-4-yl)amino]-1,4-dimethyl-1H-pyrazol-3-yl}benzonitrile] | 7 nM |
| Cc1nn(-c2cc(Nc3c(C)c(-c4ccc(C#N)cc4)nn3CC3CC3)ncn2)c(C)c1C(C)O (racemic) [Example 341, (±)-4-{1-(cyclopropylmethyl)-5-[(6-{4-[1-hydroxyethyl]-3,5-dimethyl-1H-pyrazol-1-yl}pyrimidin-4-yl)amino]-4-methyl-1H-pyrazol-3-yl}benzonitrile] | 17 nM |
| CCOC(C)c1c(C)nn(-c2cc(Nc3c(C)c(-c4ccc(C#N)cc4)nn3CC3CC3)ncn2)c1C (racemic) [Example 342, (±)-4-{1-(cyclopropylmethyl)-5-[(6-{4-[1-ethoxyethyl]-3,5-dimethyl-1H-pyrazol-1-yl}pyrimidin-4-yl)amino]-4-methyl-1H-pyrazol-3-yl}benzonitrile] | 2 nM |
| COC(C)c1c(C)nn(-c2cc(Nc3nn(C)c(-c4ccc(F)cc4)c3C)ncn2)c1C (racemic) [Example 343, (±)-N-[5-(4-fluorophenyl)-1,4-dimethyl-1H-pyrazol-3-yl]-6-{4-[1-methoxyethyl]-3,5-dimethyl-1H-pyrazol-1-yl}pyrimidin-4-amine] | 6 nM |
| Cc1nn(-c2cc(Nc3c(C)c(-c4ccc(C#N)cc4)nn3CC3CC3)ncn2)c(C)c1C(O)C(F)(F)F (racemic) [Example 358, 4-{1-(cyclopropylmethyl)-5-[(6-{3,5-dimethyl-4-[(±)-2,2,2-trifluoro-1-hydroxyethyl]-1H-pyrazol-1-yl}pyrimidin-4-yl)amino]-4-methyl-1H-pyrazol-3-yl}benzonitrile] | 10 nM |
